Calls of active or inactive are those of the source. The calls are words filed in the database; no cut-off is given here.
How the values were obtained:
[1] = biological target: T1, Transcriptional enhancer factor TEF-1 (Homo sapiens, UniProt P28347); assay: Displacement of FAM- labeled YAP1 peptide (60 to 99 residues) from human TEAD1 (209 to 426 residues) expressed in Escherichia coli BL21 (DE3) cells incubated for 24 hrs by fluorescence polarization-based competitive binding assay; settings: read-out: IC50
[2] = biological target: T2, Transcriptional enhancer factor TEF-4 (Homo sapiens, UniProt Q15562); assay: Displacement of FAM- labeled YAP1 peptide (60 to 99 residues) from human TEAD2 (217 to 447 residues) expressed in Escherichia coli BL21 (DE3) cells incubated for 24 hrs by fluorescence polarization-based competitive binding assay
[3] = biological target: T3, Transcriptional enhancer factor TEF-5 (Homo sapiens, UniProt Q99594); assay: Displacement of FAM- labeled YAP1 peptide (60 to 99 residues) from human TEAD3 (210 to 427 residues) expressed in Escherichia coli BL21 (DE3) cells incubated for 24 hrs by fluorescence polarization-based competitive binding assay
[4] = biological target: T2, Transcriptional enhancer factor TEF-4; assay: Displacement of FAM- labeled YAP1 peptide (60 to 99 residues) from human TEAD2 (217 to 447 residues) expressed in Escherichia coli BL21 (DE3) cells assessed as maximum inhibition at 0.2 to 100 uM incubated for 24 hrs by fluorescence polarization-based competitive binding assay relative to control; settings: dose 0.2-100 µM
[5] = tested on: Transcriptional enhancer factor TEF-3 (Homo sapiens), Q15561 [C367S]; assay: Displacement of FAM- labeled YAP1 peptide (60 to 99 residues) from human TEAD4 (217 to 434 residues) C367S mutant expressed in Escherichia coli BL21 (DE3) cells at 0.2 to 100 uM incubated for 24 hrs by fluorescence polarization-based competitive binding assay; settings: dose 0.2-100 µM
MDA-MB-468 [6] = assay: Inhibition of TEAD in human MDA-MB-468 cells assessed as maximal inhibition of CTGF transcriptional level at 0.01 to 100 uM incubated for 24 hrs by qRT-PCR assay relative to control; type: cell-based; settings: dose 0.01-100 µM
[7] = biological target: T4, Transcriptional enhancer factor TEF-3 (Homo sapiens, UniProt Q15561); assay: Inhibition of TEAD4 (unknown origin) transfected in human HEK293 cells co-transfected with renilla plasmid assessed as inhibition of transcriptional activity incubated for 24 hrs by dual Glo-luciferase reporter assay; type: cell-based; settings: read-out: IC50
[8] = biological target: T1, Transcriptional enhancer factor TEF-1; assay: Inhibition of TEAD1 (unknown origin) transfected in human HEK293 cells co-transfected with renilla plasmid assessed as maximum inhibition of transcriptional activity at 10 uM incubated for 24 hrs by dual Glo-luciferase reporter assay relative to control; type: cell-based
[9] = biological target: T1, Transcriptional enhancer factor TEF-1; assay: Inhibition of TEAD1 (unknown origin) transfected in human HEK293 cells co-transfected with renilla plasmid assessed as inhibition of transcriptional activity incubated for 24 hrs by dual Glo-luciferase reporter assay; type: cell-based
[10] = biological target: T2, Transcriptional enhancer factor TEF-4; assay: Inhibition of TEAD2 (unknown origin) transfected in human HEK293 cells co-transfected with renilla plasmid assessed as inhibition of transcriptional activity incubated for 24 hrs by dual Glo-luciferase reporter assay; type: cell-based
[11] = biological target: T3, Transcriptional enhancer factor TEF-5; assay: Inhibition of TEAD3 (unknown origin) transfected in human HEK293 cells co-transfected with renilla plasmid assessed as inhibition of transcriptional activity incubated for 24 hrs by dual Glo-luciferase reporter assay; type: cell-based
MDA-MB-468 [12] = assay: Antiproliferative activity against human MDA-MB-468 cells assessed as reduction in cell viability incubated for 3 days by MTS assay; type: functional, cell-based
[13] = biological target: Transcriptional coactivator YAP1/Transcriptional enhancer factor TEF-1 (Homo sapiens) (UniProt P46937+P28347); assay: Inhibition of NanoLuc-tagged TEAD1 (unknown origin)-Halo-Tagged YAP1 (unknown origin) protein-protein interaction transfected in HEK293 cells using furimazine as substrate at 1.1 to 30 uM incubated for 24 hrs by NanoBRET binding assay; type: cell-based; settings: dose 1.1-30 µM
[14] = biological target: T5, YAP1-TEAD4 (Homo sapiens) (UniProt P46937+Q15561); assay: Inhibition of NanoLuc-tagged TEAD4 (unknown origin)-Halo-Tagged YAP1 (unknown origin) protein-protein interaction transfected in HEK293 cells using furimazine as substrate at 1.1 to 30 uM incubated for 24 hrs by NanoBRET binding assay; type: cell-based; settings: dose 1.1-30 µM
[15] = biological target: T5, YAP1-TEAD4 (Homo sapiens); assay: Inhibition of NanoLuc-tagged TEAD4 (unknown origin)-Halo-Tagged YAP1 (unknown origin) protein-protein interaction transfected in HEK293 cells using furimazine as substrate at 10 uM incubated for 2 to 24 hrs by NanoBRET binding assay; type: cell-based; settings: time 2-24 hrs, TDE = time-dependent effect
[16] = biological target: T5, YAP1-TEAD4 (Homo sapiens); assay: Inhibition of NanoLuc-tagged TEAD4 (unknown origin)-Halo-Tagged YAP1 (unknown origin) protein-protein interaction transfected in HEK293 cells using furimazine as substrate at 0.9 to 30 uM incubated for 24 hrs by NanoBRET binding assay; type: cell-based; settings: dose 0.9-30 µM
[17] = biological target: T5, YAP1-TEAD4 (Homo sapiens); assay: Inhibition of myc-tagged TEAD4 (unknown origin)-Flag-Tagged YAP1 (unknown origin) protein-protein interaction transfected in HEK293 cells using furimazine as substrate at 1.1 to 11 uM incubated for 24 hrs by pull-down coimmunoprecipitation assay; type: cell-based; settings: dose 1.1-11 µM
[18] = Antiproliferative activity against human 90-8 cells assessed as reduction in cell viability incubated for 3 days by MTS assay; type: functional, cell-based; settings: 90-8, 72 h
[19] = Antiproliferative activity against human ST88-14 cells assessed as reduction in cell viability incubated for 3 days by MTS assay; type: functional, cell-based; settings: ST88-14, 72 h
SAOS-2 [20] = assay: Antiproliferative activity against human SAOS-2 cells assessed as reduction in cell viability incubated for 3 days by MTS assay; type: functional, cell-based; settings: SAOS-2, 72 h
[21] = Antiproliferative activity against human SaOS-LM7 cells assessed as reduction in cell viability incubated for 3 days by MTS assay; type: functional, cell-based; settings: SaOS-LM7, 72 h
[22] = Antiproliferative activity against human 90-8 cells assessed as maximum inhibition of cell viability incubated for 3 days by MTS assay relative to control; type: functional; settings: time 3 day
[23] = Antiproliferative activity against human ST88-14 cells assessed as maximum inhibition of cell viability incubated for 3 days by MTS assay relative to control; type: functional; settings: time 3 day
SAOS-2 [24] = assay: Antiproliferative activity against human SAOS-2 cells assessed as maximum inhibition of cell viability incubated for 3 days by MTS assay relative to control; type: functional; settings: time 3 day
[25] = Antiproliferative activity against human SaOS-LM7 cells assessed as maximum inhibition of cell viability incubated for 3 days by MTS assay relative to control; type: functional; settings: time 3 day
Huh-7 = assay: Antiproliferative activity against human Huh-7 cells assessed as maximum inhibition of cell viability incubated for 3 days by MTS assay relative to control; type: functional; settings: time 3 day
[26] = biological target: T1, Transcriptional enhancer factor TEF-1; assay: Inhibition of TEAD1 (unknown origin) transfected in human HEK293 cells co-transfected with renilla plasmid assessed as maximum inhibition of transcriptional activity at 0.1 to 10 uM incubated for 24 hrs by dual Glo-luciferase reporter assay relative to control; type: cell-based; settings: dose 0.1-10 µM
[27] = biological target: T4, Transcriptional enhancer factor TEF-3; assay: Inhibition of TEAD4 (unknown origin) transfected in human HEK293 cells co-transfected with renilla plasmid assessed as maximum inhibition of transcriptional activity at 0.1 to 10 uM incubated for 24 hrs by dual Glo-luciferase reporter assay relative to control; type: cell-based; settings: dose 0.1-10 µM

T1 sequence (P28347 whole entry, the tested form may be a part): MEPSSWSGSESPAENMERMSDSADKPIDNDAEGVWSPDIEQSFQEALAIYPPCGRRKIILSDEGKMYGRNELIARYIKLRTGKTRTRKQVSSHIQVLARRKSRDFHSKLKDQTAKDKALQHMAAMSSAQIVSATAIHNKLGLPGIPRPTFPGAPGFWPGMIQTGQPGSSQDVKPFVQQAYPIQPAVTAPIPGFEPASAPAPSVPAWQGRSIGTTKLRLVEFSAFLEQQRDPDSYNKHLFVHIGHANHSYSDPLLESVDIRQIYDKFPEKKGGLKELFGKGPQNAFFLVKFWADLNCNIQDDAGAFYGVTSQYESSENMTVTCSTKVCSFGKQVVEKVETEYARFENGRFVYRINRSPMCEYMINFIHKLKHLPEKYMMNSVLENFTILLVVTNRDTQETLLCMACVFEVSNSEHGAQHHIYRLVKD
T2 sequence (Q15562 whole entry, the tested form may be a part): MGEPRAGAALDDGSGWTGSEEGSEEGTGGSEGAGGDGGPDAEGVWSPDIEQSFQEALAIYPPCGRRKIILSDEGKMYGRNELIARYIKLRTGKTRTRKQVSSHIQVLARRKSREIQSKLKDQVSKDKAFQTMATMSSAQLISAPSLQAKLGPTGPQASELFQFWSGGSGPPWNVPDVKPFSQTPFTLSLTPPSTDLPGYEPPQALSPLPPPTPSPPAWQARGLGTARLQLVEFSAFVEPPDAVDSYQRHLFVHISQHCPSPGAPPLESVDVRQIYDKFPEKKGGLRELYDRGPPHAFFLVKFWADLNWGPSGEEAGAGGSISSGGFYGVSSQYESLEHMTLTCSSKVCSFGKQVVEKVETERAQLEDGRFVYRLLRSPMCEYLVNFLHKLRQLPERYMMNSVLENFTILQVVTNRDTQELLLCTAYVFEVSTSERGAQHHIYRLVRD
T4 sequence (Q15561 whole entry): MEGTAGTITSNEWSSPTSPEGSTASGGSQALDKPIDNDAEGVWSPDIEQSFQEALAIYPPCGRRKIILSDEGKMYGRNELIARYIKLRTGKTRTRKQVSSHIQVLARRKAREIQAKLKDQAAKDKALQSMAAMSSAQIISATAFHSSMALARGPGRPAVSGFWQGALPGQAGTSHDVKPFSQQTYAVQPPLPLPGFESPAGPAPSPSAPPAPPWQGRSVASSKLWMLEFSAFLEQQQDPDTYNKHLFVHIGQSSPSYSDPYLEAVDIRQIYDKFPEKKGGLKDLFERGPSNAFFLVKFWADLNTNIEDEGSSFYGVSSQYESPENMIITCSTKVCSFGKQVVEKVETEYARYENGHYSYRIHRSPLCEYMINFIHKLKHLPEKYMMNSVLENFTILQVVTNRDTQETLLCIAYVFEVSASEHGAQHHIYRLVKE
T3 sequence (Q99594 whole entry, the tested form may be a part): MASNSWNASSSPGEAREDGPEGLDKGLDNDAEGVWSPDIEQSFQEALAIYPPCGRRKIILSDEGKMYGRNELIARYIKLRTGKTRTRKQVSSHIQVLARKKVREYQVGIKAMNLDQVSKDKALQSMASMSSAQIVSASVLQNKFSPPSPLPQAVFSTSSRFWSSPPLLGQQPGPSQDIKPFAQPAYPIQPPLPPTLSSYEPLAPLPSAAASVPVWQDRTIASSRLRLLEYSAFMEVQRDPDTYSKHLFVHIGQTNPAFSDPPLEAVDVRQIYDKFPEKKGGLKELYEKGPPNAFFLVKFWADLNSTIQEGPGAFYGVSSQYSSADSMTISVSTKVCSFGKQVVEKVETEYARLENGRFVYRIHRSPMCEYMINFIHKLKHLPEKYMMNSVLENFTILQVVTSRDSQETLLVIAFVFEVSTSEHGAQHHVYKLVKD
Chain of Transcriptional coactivator YAP1/Transcriptional enhancer factor TEF-1 (Homo sapiens) (P28347 whole entry, looked up): as the sequence (P28347 whole entry, the tested form may be a part) above
Chain of Transcriptional coactivator YAP1/Transcriptional enhancer factor TEF-1 (Homo sapiens) (P46937 whole entry, looked up): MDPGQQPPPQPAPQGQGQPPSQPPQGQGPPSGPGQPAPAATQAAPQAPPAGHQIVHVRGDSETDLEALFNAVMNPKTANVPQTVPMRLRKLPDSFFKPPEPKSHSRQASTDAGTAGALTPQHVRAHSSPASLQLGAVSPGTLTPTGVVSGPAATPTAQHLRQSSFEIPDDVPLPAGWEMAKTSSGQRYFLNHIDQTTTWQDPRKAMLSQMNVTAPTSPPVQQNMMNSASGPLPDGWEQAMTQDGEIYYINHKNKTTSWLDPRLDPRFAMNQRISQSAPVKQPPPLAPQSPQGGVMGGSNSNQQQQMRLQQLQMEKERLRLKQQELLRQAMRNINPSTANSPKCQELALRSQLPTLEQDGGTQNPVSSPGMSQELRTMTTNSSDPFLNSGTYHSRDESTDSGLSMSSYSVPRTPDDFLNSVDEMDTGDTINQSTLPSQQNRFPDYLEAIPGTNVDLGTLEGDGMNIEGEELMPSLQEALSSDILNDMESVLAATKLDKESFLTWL
Chain of Transcriptional enhancer factor TEF-3 (Homo sapiens), Q15561 [C367S] (Q15561 whole entry C367S, the tested form may be a part): as the sequence (Q15561 whole entry) above, with C367S counted along it

N#CN1Cc2cccc(Nc3cccc(C(F)(F)F)c3)c2C1
IC50 [1]: 0.9 µM
IC50 [2]: 1.2 µM
IC50 [3]: Not Active
Imax [4]: 34%
inhibition [5]: inactive
Imax (MDA-MB-468 [6]): 65.7%
IC50 [7]: 5 µM
inhibition [8]: 40%
IC50 [9]: 5.1 µM
IC50 [10]: 2.7 µM
IC50 [11]: 2.2 µM
IC50 (MDA-MB-468 [12]): Not Active
inhibition [13]: Active
inhibition [14]: Active
inhibition [15]: Tde
inhibition [16]: Active
inhibition [17]: Dose-Dependent Effect
IC50 [18]: 3.5 µM
IC50 [19]: 0.03 µM
IC50 (SAOS-2 [20]): 0.1 µM
IC50 [21]: 0.2 µM
Imax [22]: 51.4%
Imax [23]: 31%
Imax (SAOS-2 [24]): 53.4%
Imax [25]: 60.7%
Imax (Huh-7): 48.3%
Imax [26]: 51.2%
Imax [27]: 61.8%

Reference: ChEMBL document CHEMBL5316282, “Small-Molecule Cyanamide Pan-TEAD·YAP1 Covalent Antagonists” (J Med Chem, 2023)
